Data set [1] concerns late-stage gametocytes (IV and V) of P. falciparum NF54. Briefly: Late-stage gametocyte bioluminescence assay, luciferase-expressing NF54. Type of data set: cell-based, Plasmodium falciparum. As to conditions: for Pf gametocytes inhibition: 1 μM; for inhibition at 20 µM: Plasmodium falciparum, NF54, 48 h, read-out: Pf gametocytes Inhibition (%). How it is done: For the in vitro culture of sexual stages of P. falciparum NF54 Luminescent strain, the Tripathi protocol was followed.
Parasite asexual stages were synchronized, and ring-stage parasites were incubated with a parasite-conditioned medium to induce stress and trigger gametocyte induction. After sexually committed parasites invaded new erythrocytes, N-acetylglucosamine was added to prevent further invasion and clear residual asexual parasites.
When a predominance of late stage (IV and V) gametocytes was identified and counted together, , the MACS magnetic system was used for gametocyte enrichment, as previously described. ,
The column content was eluted with RPMI medium into a 15 mL Falcon tube until translucent medium appeared, yielding ∼ 10 mL of eluate. The sample was centrifuged at 1500 rpm for 5 min at 37 °C, the supernatant discarded, and the pellet washed with preheated RPMI medium containing albumax. A 1 μL pellet sample was used to prepare a Giemsa-stained smear for gametocytaemia determination by counting 2000 cells. The gametocytemia for each assay were 71%, 64% and 31%. The remaining pellet was adjusted to 1 mL with RPMI medium containing 10% human serum at 37 °C. Total cell counts were performed using a Neubauer chamber with a 10X diluted sample.
Each well contained 200,000 gametocytes in 150 μL without erythrocytes. After 48 h of incubation, a luciferase kit (Promega) was used to reveal the assay. Eighty microliters of supernatant were discarded, and the pellet was homogenized in the remaining content. Forty microliters of the sample were transferred to a clear 96-well plate containing lysis solution (1X), gently mixed, and moved to a white-bottomed 96-well plate. Luciferase (40 μL) was added, and luminescence was measured using a microplate reader with a 10-s integration time.

Data set [2] deals with P. vivax ookinetes. Description: Ex vivo P. vivax ookinete formation assay with patient isolates. Type of data set: cell-based, Plasmodium vivax. As to conditions: 24 h. Here is the method: Participants were recruited from patients diagnosed with P. vivax malaria via Giemsa-stained blood smears at CEPEM in Porto Velho, Rondônia, Brazil (#28176720.9.0000.0011). Criteria included: P. vivax parasitemia >2000 parasites/μL, age 18–85, no severe malaria, no concomitant diseases, nonpregnant, and consent to study procedures. Approximately 10 mL of venous blood was collected into heparin-coated vials, maintained at 37 °C, and transported to PIVEM for DMFA. Malaria treatment followed Brazilian Ministry of Health guidelines and was unaffected by study participation. […] Erythrocytes were washed with incomplete RPMI-1640 medium by centrifugation at 1500 rpm for 10 min to remove leukocytes. […] The sample was centrifuged once at 450 g for 15 min without a brake. After centrifugation, the pellet remaining at the interface was collected and washed twice at 2000 g for 5 min. […] The parasites were incubated for 24 h at a temperature of 21–24 °C. After this period, the activity of the compounds was determined by microscopy, counting 100 fields to determine the parasitemia per μL in each sample, and counting the mature and immature ookinetes. […] Red blood cells were then washed with incomplete RPMI-1640 medium through centrifugation at 1500 rpm for 10 min to remove leukocytes. […] The sample was centrifuged once at 2000 rpm for 15 min without brake. After centrifugation, the remaining pellet at the interface was collected and washed twice at 2000 rpm for 5 min. […] Parasites were incubated for 24 h at a temperature of 21–24 °C. After this period, compound activity was determined by microscopy counting in 100 fields to determine parasitemia per μL in each sample.

In data set [3] the test system is P. berghei hepatic stages. Briefly: Hepatic stage bioluminescence assay, Huh-7 cells infected with luciferase-expressing sporozoites. Type of data set: cell-based, Plasmodium berghei. As to conditions: Plasmodium berghei; Huh-7 cells, 48 h after sporozoite addition; read-out: IC50 (μM) Pb liver stages. Here is the method:
(§1) Huh-7 cells were cultured in RPMI 1640 medium (Sigma) supplemented with 10% v/v fetal bovine serum (FBS), 1% v/v penicillin/streptomycin, 1% v/v glutamine, 1% v/v nonessential amino acids, and 10 mM HEPES, pH 7. For compound dilution, a medium containing 1:1000 gentamicin (G) and 1:300 fungizone (F) was used. Cells were seeded at 1 × 10^4 cells/well in 96-well plates and incubated at 37 °C with 5% CO2. After 24 h, compounds were diluted in RPMI+F+G, and after removal of the culture medium, added to the cells in triplicate. DMSO and atovaquone were used as negative and positive controls, respectively. Following incubation for 1 h at 37 °C, 5% CO2, the cells were infected with luciferase-expressing P. berghei sporozoites (4,000 parasites per well) freshly extracted from the salivary glands of infected mosquitoes reared at the GIMM insectarium. The viability of Huh-7 cells exposed to the compounds was assessed 46 h later by the AlamarBlue assay (Invitrogen, UK) measurement, and parasite burden was measured 48 h after sporozoite addition using a bioluminescence assay (Biotium). IC50 values were calculated using GraphPad Prism through nonlinear regression analysis of normalized dose–response curves.

In data set [4] the test system is Huh-7 cells. Description: Alamar Blue cell confluency (cytotoxicity) in Huh-7 cells. Type of data set: cell-based. How it is done: as §1, with “For” for “Huh-7 cells were cultured in RPMI 1640 medium (Sigma) supplemented with 10% v/v fetal bovine serum (FBS), 1% v/v penicillin/streptomycin, 1% v/v glutamine, 1% v/v nonessential amino acids, and 10 mM HEPES, pH 7. For”, “DMSO and atovaquone were used as negative and positive controls, respectively.” left out
On the first day of the assay, the compounds were diluted at 10 and 1 μM in cRPMI medium supplemented with fungizone. and gentamicin. The culture medium of Huh-7 cells was removed and replaced with compound dilutions in triplicate. As a control, a DMSO dilution mimicking the highest compound concentration used was included. The cells were incubated for 1 h at 37 °C in a 5% CO2 atmosphere.
On the second day of the assay, compound toxicity was assessed by measuring cell confluency using the Alamar Blue/CellTiter Blue reagent. First, reagent aliquots stored at −20 °C were thawed and diluted at a 1:20 ratio in cRPMI. The culture medium was removed and replaced with 80 μL of the solution per well, followed by incubation at 37 °C and 5% CO2 for 1 h and 30 min. Fluorescence was measured using a plate reader with the Tecan i-Control software.

Where [5] appears, read: 20 μM, 48 h, late-stage (IV and V) gametocytes.
Setting [6] is: Plasmodium vivax, read-out: P. vivax ookinete formation inhibition (median).

Take `CCCCCCOc1ccc(-c2cc(=O)c3ccccc3[nH]2)cc1` [compound 6, 2-(4-(Hexyloxy)-phenyl)-quinolin-4(1H)-one]: in data set [1], the Pf gametocytes inhibition result is listed as “no activity”. Besides, in data set [1] (setting [5]), the “Pf gametocytes Inhibition (%)” value was 68 ± 25%. The inhibition – broadly, how much of the control response was suppressed – at 20 µM in data set [1] (setting [5]) was 64%. For the same compound, the “P. vivax ookinete formation inhibition (median)” value in data set [2] (0.4 μM) is listed as “no activity”. Also, the inhibition at 2 µM in data set [2] (setting [6]) was 83%. In data set [3], the IC50 (usually the concentration that gives 50% inhibition) was determined as 0.38 ± 0.04 µM. For the same compound, the Confluency % in data set [4] (1 μM) is 105 ± 3%; in data set [4] (10 μM), 102 ± 11%.
In the case of `CCCCCCCCCCCc1cc(=O)c2ccccc2[nH]1` [compound 1, 2-Undecilquinolin-4(1H)-one], the Pf gametocytes inhibition entry in data set [1] is on record as “no activity”. Further, the inhibition at 20 µM in data set [1] (setting [5]) was 44 ± 4%. Moreover, the inhibition at 0.4 µM in data set [2] (Plasmodium vivax, 0.4 μM, read-out: P. vivax ookinete formation inhibition (median)) was found to be 70%. The inhibition at 2 µM in data set [2] (setting [6]) came out at 84%. Moreover, the inhibition at 10 µM in data set [2] (Plasmodium vivax, 10 μM, n = 6 patients, read-out: P. vivax ookinete formation inhibition (median)) is 97%. Also, in data set [3], the IC50 stood at 0.25 ± 0.01 µM. Further, the figures for the Confluency % in data set [4] (1 μM) and in data set [4] (10 μM) were 97 ± 6% and 79 ± 2%, respectively.

The values above are taken from paper PMC12631437, “Evaluation of the Activity of 4‑Quinolones against Multi-Life Stages of Plasmodium spp” (ACS Omega, 2025).
